IC50 data for eleven molecules are collected here from BindingDB's records for doi:10.3109/14756361003691860 (Tarbiat Modares University, 2010).

SMILES strings stand for the structures.

Acetylcholinesterase, sequence (P22303 whole entry): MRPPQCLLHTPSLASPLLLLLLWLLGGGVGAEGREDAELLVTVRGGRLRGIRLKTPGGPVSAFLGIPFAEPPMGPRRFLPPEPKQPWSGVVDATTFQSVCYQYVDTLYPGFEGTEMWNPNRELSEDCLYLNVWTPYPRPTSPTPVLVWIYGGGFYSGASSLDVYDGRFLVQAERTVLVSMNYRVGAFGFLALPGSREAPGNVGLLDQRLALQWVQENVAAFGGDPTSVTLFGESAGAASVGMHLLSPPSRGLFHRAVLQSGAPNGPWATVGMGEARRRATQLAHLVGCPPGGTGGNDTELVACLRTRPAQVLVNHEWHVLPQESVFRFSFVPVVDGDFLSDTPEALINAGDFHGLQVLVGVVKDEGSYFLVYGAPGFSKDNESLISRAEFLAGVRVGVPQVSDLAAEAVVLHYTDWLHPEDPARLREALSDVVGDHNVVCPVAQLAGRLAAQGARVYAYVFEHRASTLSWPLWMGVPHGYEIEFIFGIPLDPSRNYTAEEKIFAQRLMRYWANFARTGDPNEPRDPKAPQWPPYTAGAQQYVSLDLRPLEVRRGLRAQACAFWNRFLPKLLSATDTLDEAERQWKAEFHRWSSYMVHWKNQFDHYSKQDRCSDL

The assay has as its target Acetylcholinesterase (Homo sapiens, UniProt P22303). The assay can be described thus: AChE Inhibition Assay. As to conditions: pH 7.4; 37 °C. As to the method: The reaction was carried out at 37°C in 70 mM phosphate buffer (Na2HPO4/NaH2PO4, pH 7.4) containing the enzyme (20 μl volume, diluted 100 times in phosphate buffer, pH 7.4), DTNB (5,5-dithiobis(2-nitrobenzoic acid)) (10−4M concentration) and ATCh (1.35 × 10−4M concentration). The absorbance change at 37°C was monitored with the spectrophotometer at 412 nm for 3 min. and three replicates were run in each experiment.
The term IC50 denotes the concentration that gives 50% inhibition. Read a low IC50 as greater potency in that assay. With `O=P(O)(O)CN1CCCN(CP(=O)(O)O)CC1` [Homopiperazine-1,4-bis(methylenephosphonic acid) (11)], the midpoint of inhibition, the IC50, lay at 28.7 mM.

Molecule `CCCCC(CC)CN(CP(=O)(O)O)CP(=O)(O)O` (stereo unspecified) [N-2-Ethyl hexyliminobis(methylenephosphonic acid) (6)] gave an IC50 of 9.48 mM.

On to `O=P(O)(O)CN(CCc1ccccc1)CP(=O)(O)O` [N-2-Phenyl ethyliminobis(methylenephosphonic acid) (8)], for which half-maximal inhibition (IC50) required 11 mM.

On to `O=P(O)(O)CN(Cc1ccccc1)CP(=O)(O)O` [N-Benzyliminobis(methylenephosphonic acid) (7)], for which it took 11.9 mM to reach half-maximal inhibition (IC50).

As for `O=P(O)(O)CN(CP(=O)(O)O)C1CCCCC1` [N-Cyclohexyliminobis(methylenephosphonic acid) (10)], the IC50 amounted to 9.96 mM.

The molecule `O=P(O)(O)CN(CP(=O)(O)O)C1CCCC1` [N-Cyclopentyliminobis(methylenephosphonic acid) (9)] came in with an IC50 of 11.1 mM.

In turn, `CCN(CP(=O)(O)O)CP(=O)(O)O` [N-Ethyliminobis(methylenephosphonic acid) (2)] returned an IC50 of 22.1 mM.

In turn, `CC(C)N(CP(=O)(O)O)CP(=O)(O)O` [N-Isopropyliminobis(methylenephosphonic acid) (5)] came in with an IC50 of 9.11 mM.

In the case of `CN(CP(=O)(O)O)CP(=O)(O)O` [N-Methyliminobis(methylenephosphonic acid) (1)], half-maximal inhibition (IC50) required 28.1 mM. This IC50 is about 3.1-fold higher than that of the molecule before.

In turn, `CCCCCN(CP(=O)(O)O)CP(=O)(O)O` [N-Pentyliminobis(methylenephosphonic acid) (4)] registered an IC50 of 11.7 mM.

`CCCN(CP(=O)(O)O)CP(=O)(O)O` [N-Propyliminobis(methylenephosphonic acid) (3)]: the IC50 was 12.7 mM. The IC50 values of the last two molecules are within 1.5-fold of each other.
